# In patent US5760001A, “Cytokine restraining agents and methods of use in pathologies and conditions associated with altered cytokine levels” (Trega Biosciences, Inc., priority 1995, dated 1998):
# Tests used:
# [1] = system: inducible nitric oxide synthase (INOS); test: Inducible nitric oxide synthase induction in rat aorta smooth muscle cells (cGMP RIA); assay type: cell-based; settings: RASMC induced with LPS, IL-1β or TNF-α; EX-2 0.1 or 1 μM
# Procedure: Rat aorta smooth muscle cells (RASMC) were isolated from male rats (325-350 g) using the previously published procedures of Gelsterfer et al., Circ. Res. 62:749-756 (1988), which is incorporated herein by reference. Cells were positively identified as smooth muscle cells by indirect immunofluorescent staining for anti-α-actin, using a mouse anti-α-actin antibody and anti-mouse IgG FITC conjugate. Cells were grown in T-75 tissue culture flasks (Corning Delbelco's Glass, Inc.; Corning, N.Y.) in 50% F12 and 50% Delbelco's Modified Eagle Medium (DMEM) supplemented with 10% bovine serum, 0.2 g/l L-glutamine, penicillin (100 U/ml) and streptomycin (0.1 mg/ml).
# Cells between passages 1-5 were pretreated with one of the following: vehicle, LPS (1 μg/ml), IL-1β (10 U/ml), or TNF-α (100 U/ml) for 6 hr. […] Accumulation of cGMP was determined following exposure to 0.3 mM 3-isobutyl-1-methyl xanthine (IBMX) in the presence or absence of 1 mM L-arginine. […] The HCl extract was analyzed for cGMP by RIA and the NaOH-solubilized cell remnants were used for protein determination.
# Male Sprague-Dawley rats were anesthetized with 55 mg/kg pentobarbital IP. […] RASMC were incubated with plasma from control or EX-2-treated animals and the ability of plasma components to inhibit the induction of INOS by LPS or IL-1β was determined as above. […]
# [2] = system: Male Harlan Sprague-Dawley rats; test: Adult respiratory distress syndrome: LPS-induced PMN count in broncho-alveolar lavage fluid; assay type: in vivo; settings: 100 μg/kg IP at 0, 2 and 4 hr; intratracheal LPS 5 mg/kg; lavage at 6 hr
# Procedure: These experiments were performed using a modification of the methods described by Ulich et al., Am. J. Pathol. 141:61-68 (1992) and by Wheelden et al., Lab. Animals 26:29-37 (1992), each of which is incorporated herein by reference. Male Harlan Sprague-Dawley rats were anesthetized using a mixture of 70 mg/kg ketamine and 6 mg/kg rompun injected IP. A 2-3 cm incision was made in the neck of each anesthetized rat and its trachea was exposed by blunt dissection of the surrounding soft tissue. The rats were suspended on a near vertical slab and intratracheal injections were performed by inserting into the exposed trachea, at a point 1 cm posterior to the larynx, a 25G×1/2 inch needle attached to a 1 cc syringe.
# Each rat received 0.5 ml/kg of saline or 0.5 ml/kg of 10 mg/ml (5 mg/kg) LPS endotoxin via slow intratracheal administration. Immediately following administration of the LPS endotoxin, rats were injected IP with 1 ml/kg of either saline (control) or saline containing various concentrations of EX-2 (treated). The rats were maintained in the elevated position for 1-2 min to facilitate distribution of the LPS and saline into the lung. The incisions were closed and the rats were allowed to recover. […]
# The total polymorphonuclear leukocytes (PMN; neutrophils) in the broncho-alveolar lavage fluid were counted in the EX-2-treated rats and compared with the number in the control rats.
# adult female Balb/c mice = test: Carageenan-induced paw swelling; assay type: in vivo; settings: 1 μg/mouse; measured at the 2 hr time point
# Procedure: Carageenan-induced paw swelling was induced using a modification of the methods of Hiltz and Lipton, Peptides 11:979-982 (1990); Vinegar et al., Fed. Proc. 46:118-1.26 (1987); and Vinegar et al., J. Pharmacol. Expt. Therap. 166:96-103 (1969), each of which is incorporated herein by reference. Briefly, adult female Balb/c mice were anesthetized by IP injection of 7 mg/kg ketoamine and 0.6 mg/kg rompun. Foot pad thickness was measured using a spring loaded micrometer (Swiss Precision Instruments). Foot pad thickness was expressed in units of 1/100 inch. After baseline measurements were obtained, mice were injected into a hind foot pad with either 0.2 ml physiologic saline (control) or varying doses of EX-2 or EX-3 in 0.2 ml saline (treated). The first injection was followed immediately by injection of 0.02 ml of 0.15% κ-carageenan (Sigma Chemical Co.; St. Louis, Mo.).
# Hind foot pad thickness was measured hourly for six hr, the change in thickness was determined and the percent reduction in swelling due to treatment with EX-2 was calculated.
substance,measurement,setting,value
Ac-Nle-Gln-His-(D)Phe-Arg-(D)Trp-Gly-NH2 [EX-2],"INOS: cGMP (pmol/100 mg/15 min), % Reduction of induced increase",[1],60%
same,Reduction in LPS-induced PMN Count,[2],58%
same,Reduction in Carageenan-induced Paw Swelling,adult female Balb/c mice,45%
